In ChEMBL document CHEMBL1949666, “Inhibition of human monoamine oxidase A and B by 5-phenoxy 8-aminoquinoline analogs” (Bioorg Med Chem Lett, 2012):
pIC50: −log10 of the molar value.

Columns and labels:
[1] = target: T1, Amine oxidase [flavin-containing] B (Homo sapiens, UniProt P27338); experiment: Inhibition of human recombinant MAOB assessed as conversion of kynuramine to 4-hydroxyquinoline preincubated for 15 mins by fluorimetric assay
T1 sequence (P27338 whole entry): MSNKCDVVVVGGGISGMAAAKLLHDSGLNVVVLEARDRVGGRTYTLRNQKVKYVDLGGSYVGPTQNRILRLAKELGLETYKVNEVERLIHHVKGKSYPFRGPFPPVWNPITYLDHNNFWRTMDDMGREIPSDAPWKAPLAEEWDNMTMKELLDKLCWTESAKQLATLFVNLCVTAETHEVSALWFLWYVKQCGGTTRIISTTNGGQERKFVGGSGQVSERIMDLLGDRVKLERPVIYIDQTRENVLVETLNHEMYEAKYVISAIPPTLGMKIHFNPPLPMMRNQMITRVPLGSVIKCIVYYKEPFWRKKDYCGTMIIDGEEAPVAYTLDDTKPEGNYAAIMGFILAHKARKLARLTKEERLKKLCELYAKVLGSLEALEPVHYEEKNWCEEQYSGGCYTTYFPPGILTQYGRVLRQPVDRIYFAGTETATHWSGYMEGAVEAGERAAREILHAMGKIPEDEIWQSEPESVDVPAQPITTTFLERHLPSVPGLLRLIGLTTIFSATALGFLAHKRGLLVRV

[2] = organism: Homo sapiens; experiment: Selectivity index, ratio of IC50 for human recombinant MAOA to IC50 for human recombinant MAOB
[3] = target: T2, Amine oxidase [flavin-containing] A (Homo sapiens, UniProt P21397); experiment: Inhibition of human recombinant MAOA assessed as conversion of kynuramine to 4-hydroxyquinoline preincubated for 15 mins by fluorimetric assay
T2 sequence (P21397 whole entry): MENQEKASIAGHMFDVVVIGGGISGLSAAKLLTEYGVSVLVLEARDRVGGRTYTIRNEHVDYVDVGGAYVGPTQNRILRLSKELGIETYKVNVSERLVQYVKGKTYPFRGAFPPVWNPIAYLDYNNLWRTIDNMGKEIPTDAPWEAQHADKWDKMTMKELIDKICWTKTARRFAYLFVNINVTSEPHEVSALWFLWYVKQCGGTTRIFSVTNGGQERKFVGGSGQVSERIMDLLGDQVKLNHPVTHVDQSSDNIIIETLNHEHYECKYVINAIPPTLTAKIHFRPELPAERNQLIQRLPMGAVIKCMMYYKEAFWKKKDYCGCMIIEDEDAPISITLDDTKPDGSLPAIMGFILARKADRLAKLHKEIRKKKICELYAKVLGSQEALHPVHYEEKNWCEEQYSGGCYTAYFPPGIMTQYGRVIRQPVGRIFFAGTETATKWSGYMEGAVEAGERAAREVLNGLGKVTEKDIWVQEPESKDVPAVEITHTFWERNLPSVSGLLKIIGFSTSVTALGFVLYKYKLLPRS

pIC50 [1] | Ratio IC50 [2] | pIC50 [3] | Structure (SMILES)
4.02 | 0.8 | – | COc1cc(NC(C)CCCN)c2ncccc2c1 (stereo unspecified) [PRIMAQUINE]
4.48 | 0.29 | 5.01 | COc1cc(NC(C)CCCN)c2nccc(C)c2c1Oc1ccc(F)cc1 (stereo unspecified)
5.44 | 6.22 | 4.64 | COc1cc(NC(C)CCCN)c2nccc(C)c2c1Oc1ccc(F)c(F)c1 (stereo unspecified)
4.97 | 0.3 | 5.49 | COc1cc(NC(C)CCCN)c2nccc(C)c2c1Oc1cccc(F)c1 (stereo unspecified)
